Assays:
Assay type in all cases: in vivo
[1] = system: Ryegrass, Italian (Italian ryegrass, Lolium multiflorum); test: Test A1 preemergence, Ryegrass, Italian
Method in brief: (§1)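 Both timings started from seed in a loam-sand blend. Preemergence pots got a directed soil application immediately; postemergence pots were sprayed when seedlings had one or two leaves and stood 2–10 cm. Each compound was prepared in a non-phytotoxic solvent plus surfactant.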

[2] = system: ragweed (common ragweed, Ambrosia artemisiifolia); test: Test A1 postemergence, ragweed; conditions: for Plant response rating, Ragweed: Postemergence
Method in brief: as §1

[3] = system: Foxtail, Giant (giant foxtail, Setaria faberi); test: Test A1 postemergence, Foxtail, Giant; conditions: for Plant response rating, Foxtail, Giant: Postemergence
Method in brief: (§2)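 Pre: seeds in loam/sand blend, directed soil spray. Post: potted plants, same soil, 2–10 cm, 1–2 leaf stage. Chemicals in non-phytotoxic solvent + surfactant for both.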

[4] = system: blackgrass (Alopecurus myosuroides); test: Test A1 postemergence, blackgrass; conditions: Postemergence, 0 to 100 scale (0 no effect, 100 complete control)
Method in brief: as §2

kochia (Bassia scoparia) = test: Test A1 preemergence, kochia
Method in brief: as §1

[5] = system: goosegrass (Eleusine indica); test: Test A1 postemergence, goosegrass; conditions: for Plant response rating, Goosegrass: Postemergence
Method in brief: as §2

[6] = system: Ryegrass, Italian (Italian ryegrass, Lolium multiflorum); test: Test A1 postemergence, Ryegrass, Italian; conditions: for Plant response rating, Ryegrass, Italian: Postemergence
Method in brief: as §2

[7] = system: Pigweed, Palmer (palmer amaranth, palmer pigweed, Amaranthus palmeri); test: Test A1 preemergence, Pigweed, Palmer
Method in brief: as §1

[8] = 31 g ai/ha, 0 to 100 scale (0 no effect, 100 complete control)
[9] = 125 g ai/ha, 0 to 100 scale, 0 no effect, 100 complete control
[10] = 31 g ai/ha, 0 to 100 scale (0 no effect, 100 complete control), 10 days
[11] = 31 g ai/ha, postemergence, 0 to 100 scale (0 no effect, 100 complete control)

Row | Structure (SMILES) | Plant response rating, Ryegrass, Italian [1, 8] | Plant response rating, Ryegrass, Italian [1, 9] | Plant response rating, Ragweed [2, 10] | Plant response rating, Ragweed ([2]; 125 g ai/ha, 0 to 100 scale) | Plant response rating, Foxtail, Giant [3, 10] | Plant response rating, Foxtail, Giant ([3]; 125 g ai/ha, 0 to 100 scale) | Plant response rating, Blackgrass ([4]; 31 g ai/ha, 10 days) | Plant response rating, Blackgrass ([4]; 125 g ai/ha) | Plant response rating, Kochia (kochia (Bassia scoparia); [8]) | Plant response rating, Kochia (kochia (Bassia scoparia); [9]) | Plant response rating, Goosegrass [5, 10] | Plant response rating, Goosegrass ([5]; 125 g ai/ha, 0 to 100 scale) | Plant response rating, Ryegrass, Italian [6, 10] | Plant response rating, Ryegrass, Italian ([6]; 125 g ai/ha, 0 to 100 scale) | Plant response rating, Pigweed, Palmer [7, 8] | Plant response rating, Pigweed, Palmer [7, 9] | Ragweed plant response rating [2, 11] | Foxtail, Giant plant response rating [3, 11] | Goosegrass plant response rating [5, 11] | Ryegrass, Italian plant response rating [6, 11]
1 | Cc1cc(C)c(N(COC(=O)C(C)(C)C)S(=O)(=O)C(F)(F)F)cc1C(=O)N1CCC(C)CC1 [Compound 353] | 0 | 0 | 20 | 60 | 20 | 50 | 0 | 0 | 0 | 20 | 0 | 30 | 0 | 0 | 30 | 40 |  |  |  | 
2 | CCC1CC(c2cc(NS(=O)(=O)C(F)(F)F)c(C)cc2C)=NO1 (stereo not drawn) [Compound 375] | 30 | 80 |  | 50 |  | 10 | 0 | 0 | 0 | 70 |  | 90 |  | 40 | 0 | 80 | 0 | 0 | 50 | 0
3 | Cc1cc(C)c(N(COC(=O)C(C)(C)C)S(=O)(=O)C(F)(F)F)cc1C1=NOC2CCCCCC12 (single isomer, unassigned) [Compound 294] | 40 | 90 | 30 | 80 | 0 | 20 | 0 | 0 | 0 | 60 | 0 | 30 | 0 | 40 | 10 | 30 |  |  |  | 
4 | Cc1c(C(=O)N2CCC(F)CC2)cc(N(COC(=O)C(C)(C)C)S(=O)(=O)C(F)(F)F)c(C)c1C [Compound 361] | 0 | 0 | 60 | 80 | 10 | 50 | 0 | 0 | 0 | 30 | 0 | 30 | 0 | 0 | 0 | 20 |  |  |  | 
5 | Cc1c(NS(=O)(=O)C(F)(F)F)cc(C(=O)N2CCOCC2)c(C)c1C [Compound 289, 1,1,1-Trifluoro-N-[2,3,4-trimethyl-5-(4-morpholinylcarbonyl)phenyl]methanesulfonamide] | 20 | 70 | 70 | 80 | 40 | 90 | 0 | 10 | 20 | 80 | 40 | 70 | 30 | 60 | 90 | 100 |  |  |  | 
6 | CCC1ON=C(c2cc(N(COC(=O)C(C)(C)C)S(=O)(=O)C(F)(F)F)c(C)cc2C)C1CC (stereo not drawn) [Compound 344] | 20 | 40 | 30 | 60 | 10 | 30 | 0 | 50 | 0 | 30 | 0 | 30 | 30 | 40 | 50 | 80 |  |  |  | 
7 | COCC1CC(c2cc(N(COC(=O)C(C)(C)C)S(=O)(=O)C(F)(F)F)c(C)cc2C)=NO1 (stereo not drawn) [Compound 338] | 30 | 30 | 30 | 70 | 10 | 80 | 0 | 0 | 0 | 10 | 0 | 70 | 0 | 10 | 0 | 40 |  |  |  | 
8 | CCCCOC1CC(c2cc(NS(=O)(=O)C(F)(F)F)c(C)cc2C)=NO1 (stereo not drawn) [Compound 323] | 40 | 90 | 0 | 50 | 10 | 50 | 0 | 50 | 20 | 90 | 0 | 50 | 0 | 20 | 90 | 100 |  |  |  | 
9 | Cc1cc(C)c(N(C(=O)OCC(C)C)S(=O)(=O)C(F)(F)F)cc1C1=NOC2CCCC12 (stereo not drawn) [Compound 299] | 50 | 60 | 40 | 70 | 0 | 30 | 0 | 0 | 0 | 50 | 30 | 40 | 30 | 50 | 0 | 70 |  |  |  | 
10 | Cc1cc(C2CC2)c(C2=NOC3CCCC23)cc1N(COC(=O)C(C)(C)C)S(=O)(=O)C(F)(F)F (stereo not drawn) [Compound 355] | 20 | 30 | 60 | 60 | 10 | 60 | 0 | 0 | 0 | 0 | 0 | 70 | 30 | 40 | 0 | 70 |  |  |  | 
11 | Cc1cc(C)c(N(S(=O)(=O)C(F)(F)F)S(=O)(=O)C(F)(F)F)cc1C1=NOC2COCC12 (stereo not drawn) [Compound 296] | 0 | 90 | 20 | 30 | 0 | 10 | 0 | 0 | 60 | 90 | 20 | 60 | 0 | 40 | 10 | 80 |  |  |  | 
12 | CCOC(=O)N(c1cc(C(=O)N2CCOCC2)c(C)cc1C)S(=O)(=O)C(F)(F)F [Compound 363] | 80 | 100 | 60 | 70 | 30 | 90 | 0 | 50 | 80 | 100 | 30 | 90 | 20 | 90 | 90 | 100 |  |  |  | 
